Experiments:
immunopanned RGCs = assay: Survival of immunopanned primary RGCs in culture; type: cell-based, mice; conditions: for Neuroprotective (survival-promoting) activity on primary RGCs in culture: increasing doses, 72 hours in culture; for Toxicity in primary RGC culture: nanomolar doses
Method: All animal use was in accordance with ARVO Statement for the Use of Animals, and all the experimental procedures were performed in compliance with animal protocols approved by the IACUC at Johns Hopkins University. Retinas were isolated from postnatal 0-5 day mice and dissociated with papain. Microglia was immunodepleted with anti-CD11b conjugated Dynabeads. The suspension of retinal cells were immunopanned on plates pre-conjugated with anti-Thy1.2 antibody (Serotec, MCA028) and anti-mouse IgM at room temperature (RT). After washing, RGCs were released from the plate by a cell lifter, counted, and seeded at a density of 10,000 per well in 96-well plates in the media composed of Neurobasal, B27, N2 supplement, L-glutamine, and penicillin/streptomycin. […] Images were taken from portions of each well with Cellomics Kinetscan, and cell survival was quantified and calculated with the algorithms in Cellomics Neuroprofiling package. As indicated, RGC viability was alternatively measured by CellTiter-Glo luminescence (Promega).
For siRNA-based screening, the siRNAs from the Sigma Mission Mouse Kinome library were complexed with NeuroMag (Oz Biosciences) at a final concentration of 20 nM. […] Confirmatory siRNAs were obtained from both Dharmacon and Ambion. […] RGCs were cultured for 48 h, and cell viability was analyzed on a plate reader (ViewLux, Perkin Elmer) using the bioluminescent CellTiterGlo (Promega) assay. Concentration response curves were created using CurveFit (NIH NCATS).

optic nerve axons = assay: Rat laser-induced ocular hypertension (glaucoma model); type: in vivo, Wistar rats; conditions: for Neuroprotection in the glaucoma model: intravitreal PLGA microspheres / slow release formulation
Method: (§1) 6-week old male Wistar rats were anesthetized with ketamine/xylazine. A partial periotomy was made to expose the sclera. The injection site was approximately 1 mm posterior to the ora serrata, and the injection glass pipet was angled towards the optic disc in order to avoid lens injury. 5 μL (10 μg) of PLGA microspheres were injected with a glass pipet and Hamilton syringe.
Intraocular pressure (IOP) was unilaterally elevated by laser treatment of the trabecular meshwork as previously described^7. Briefly, 6-week old Wistar male rats were anesthetized with ketamine/xylazine. On two consecutive weeks, 40-50 532 nm diode laser spots were applied to the prelimbal region (50 μm diameter, 600 mW power and 0.6 seconds duration). Under anesthesia, the IOP of laser-treated and fellow eyes was measured with TonoLab one and three days after laser treatment. Four weeks following laser treatment, rats were perfused with 4% paraformaldehyde in phosphate buffer. Optic nerves were isolated, postfixed with 1% osmium tetroxide, embedded in epoxy resin and stained with 1% toluidine blue. Images from 10 random and nonoverlapping fields were taken with 100× oil phase contrast objective. The area of entire optic nerve cross-sections were imaged with 10× magnification, and used with axon counts from the 10 field to derive axon counts per nerve. The laser treatment and acquisition of optic nerve images were performed in a masked fashion.

RGCs [1] = assay: Rat optic nerve transection after intravitreal microspheres; type: in vivo, Wistar rats
Method: as §1
The optic nerve was exposed by a partial peritomy and intraorbital dissection of the extraocular muscles, and then transected with a 25-gauge needle. 4-Di-10-ASP were then applied to the proximal nerve stump. Care was taken to avoid vascular injury during the transection, and retinal perfusion was examined after nerve transection. Two weeks after transection, rats were sacrificed and enucleated. Retinas were flatmounted, imaged with confocal microscopy and the number of 4-Di-10-ASP-labeled cells with RGC morphology was quantified. Imaging and quantification of RGC survival were performed in a masked fashion.

DLK = DLK signaling in immunopanned RGCs (Western blot of phospho-MKK7 and phospho-JNK); type: cell-based, mice; conditions: same concentrations that increase RGC survival
Method: Western blots were performed according to the standard protocol. The following antibodies were from Cell Signaling Technology: Phospho-JNK, Thr183/Tyr185 (4671); JNK (9258); Phospho-MKK7 (4171), and MKK7 (4172). Monoclonal anti-alpha-tubulin antibody (T6074) was purchased from Sigma. DLK rabbit polyclonal was provided by S. Hirai.
To assess sunitinib's effect on DLK signaling in RGCs, immunopanned cells were cultured in the presence of increasing amounts of sunitinib.

[2] = Solubility of sunitinib in aqueous solution; type: physicochemical
kinases = conditions: at neuroprotective concentrations; cited from earlier work
RGCs [3] = assay: Whole-cell patch-clamp recordings from RGCs at two weeks in culture
Source text: Recordings were made by using the whole-cell patch-clamp technique in both current- and voltage-clamp modes with an Axopatch 200B. Data were low-pass filtered at 1 kHz (Bessel) and sampled at 10 kHz. […] The recording pipette was filled with the following intracellular solution (in mM): 100 K-gluconate, 50 KCl, 20 HEPES, 10 EGTA, 5 MgCl2, 2 ATP, 0.1 GTP, pH adjusted to 7.33 with KOH. The cells were continuously perfused with (in mM): 140 NaCl, 5 KCl, 1 MgCl2, 2.5 CaCl2), 10 glucose, 10 HEPES, pH 7.4 with NaOH.
To determine whether the RGCs that are kept alive for extended periods with DLK siRNA or sunitinib treatment remain functional, patch-clamp recordings were performed at two weeks in culture.

## O=C(c1ccc(/C=C/c2n[nH]c3ccccc23)cc1)N1CCNCC1 [KW-2449]
Immunopanned RGCs
  Neuroprotective (survival-promoting) activity on primary RGCs in culture: promoted the survival of primary RGCs in culture

## CCN(CC)CCNC(=O)c1c(C)[nH]c(/C=C2\C(=O)Nc3ccc(C(=O)N(C)C)cc32)c1C [SR8165]
Immunopanned RGCs
  DLK toxicity: reduced DLK toxicity
  Neuroprotective (survival-promoting) activity on primary RGCs in culture: greater efficacy in vitro
Optic nerve axons
  Neuroprotection in the glaucoma model: conferred similar neuroprotection

## CN(C)S(=O)(=O)c1ccc2c(c1)/C(=C/c1cc3c([nH]1)CCCC3)C(=O)N2 [SU6656]
Immunopanned RGCs
  Neuroprotective (survival-promoting) activity on primary RGCs in culture: neuroprotective

## CCN(CC)CCNC(=O)c1c(C)[nH]c(/C=C2\C(=O)Nc3ccc(F)cc32)c1C [Sunitinib]
Immunopanned RGCs
  Neuroprotective (survival-promoting) activity on primary RGCs in culture: dose-dependent increase in the viability of primary RGCs
RGCs [1]; intravitreal PLGA microspheres 7 days before transection, two weeks post-transection
  Increase in surviving RGCs compared to control animals: 3-4 fold
Optic nerve axons; intravitreal drug-eluting microspheres, one month, p<0.05
  Reduction of optic nerve axon loss: 40%
DLK
  Phosphorylation of targets downstream of DLK, including MKK7 and JNK: decrease in the phosphorylation
[2]
  Solubility in aqueous solution: pH dependent
kinases
  Number of kinases inhibited: ~200 kinases
RGCs [3]
  Functionality of RGCs kept alive for extended periods: conducted action potentials in response to depolarizing current and were responsive to exogenously applied glutamate

## COc1cc(N2CCC(N3CCN(C)CC3)CC2)ccc1Nc1ncc(Cl)c(Nc2ccccc2S(=O)(=O)C(C)C)n1 [TAE-684]
Immunopanned RGCs
  Toxicity in primary RGC culture: limited by toxicity at nanomolar doses

## Cc1cc(Nc2cc(N3CCN(C)CC3)nc(Sc3ccc(NC(=O)C4CC4)cc3)n2)[nH]n1 [Tozasertib, tozasertib]
Immunopanned RGCs
  Neuroprotective (survival-promoting) activity on primary RGCs in culture: promoted the survival of primary RGCs in culture
RGCs [1]; intravitreal slow release formulation
  Protection of RGCs in the optic nerve transection model: protected RGCs
Optic nerve axons
  Neuroprotection in the glaucoma model: protected RGCs

## C[C@@H](Oc1cc(-c2cnn(C3CCNCC3)c2)cnc1N)c1c(Cl)ccc(F)c1Cl [crizotinib]
Immunopanned RGCs
  Neuroprotective (survival-promoting) activity on primary RGCs in culture: promoted the survival of primary RGCs in culture

## COc1cc2c(Oc3ccc(NC(=O)C4(C(=O)Nc5ccc(F)cc5)CC4)cc3F)ccnc2cc1OCCCN1CCOCC1 [foretinib]
Immunopanned RGCs
  Neuroprotective (survival-promoting) activity on primary RGCs in culture: promoted the survival of primary RGCs in culture

## Cc1ccc(NC(=O)c2ccc(CN3CCN(C)CC3)cc2)cc1Nc1nccc(-c2cccnc2)n1 [imatinib]
Immunopanned RGCs
  Neuroprotective (survival-promoting) activity on primary RGCs in culture: lack neuroprotective activity

## CCOc1cc2ncc(C#N)c(Nc3ccc(OCc4ccccn4)c(Cl)c3)c2cc1NC(=O)/C=C/CN(C)C [neratinib]
Immunopanned RGCs
  Toxicity in primary RGC culture: limited by toxicity at nanomolar doses

## CNC(=O)c1cc(Oc2ccc(NC(=O)Nc3ccc(Cl)c(C(F)(F)F)c3)cc2)ccn1 [sorafenib]
Immunopanned RGCs
  Neuroprotective (survival-promoting) activity on primary RGCs in culture: lack neuroprotective activity

## Clc1ccc(Nc2nnc(Cc3ccncc3)c3ccccc23)cc1 [vatalanib]
Immunopanned RGCs
  Neuroprotective (survival-promoting) activity on primary RGCs in culture: lack neuroprotective activity

## lestautinib
Immunopanned RGCs
  Neuroprotective (survival-promoting) activity on primary RGCs in culture: promoted the survival of primary RGCs in culture

Reference: US11013719B2, “Sunitinib formulations and methods for use thereof in treatment of glaucoma” (The Johns Hopkins University, priority 2014, dated 2021)
